Columns and labels:
[1] = test system: AIM2 inflammasome; test: IL-1β secretion in macrophages challenged with poly dA:dT (FIG. 4C); format: cell-based, human; details: BT032 20, 100 μM; 6 h
Excerpt: In vitro stimulation of human macrophages.

[2] = molecular target: T1, recombinant full length NLRP1 (Homo sapiens, UniProt Q9C000); test: Photo-affinity labelling of recombinant full length NLRP1, anti-PEG immunoblot (FIG. 9E); format: binding; details: inferred from photo-affinity probes ADS165, ADS167
T1 sequence (Q9C000 1-1473): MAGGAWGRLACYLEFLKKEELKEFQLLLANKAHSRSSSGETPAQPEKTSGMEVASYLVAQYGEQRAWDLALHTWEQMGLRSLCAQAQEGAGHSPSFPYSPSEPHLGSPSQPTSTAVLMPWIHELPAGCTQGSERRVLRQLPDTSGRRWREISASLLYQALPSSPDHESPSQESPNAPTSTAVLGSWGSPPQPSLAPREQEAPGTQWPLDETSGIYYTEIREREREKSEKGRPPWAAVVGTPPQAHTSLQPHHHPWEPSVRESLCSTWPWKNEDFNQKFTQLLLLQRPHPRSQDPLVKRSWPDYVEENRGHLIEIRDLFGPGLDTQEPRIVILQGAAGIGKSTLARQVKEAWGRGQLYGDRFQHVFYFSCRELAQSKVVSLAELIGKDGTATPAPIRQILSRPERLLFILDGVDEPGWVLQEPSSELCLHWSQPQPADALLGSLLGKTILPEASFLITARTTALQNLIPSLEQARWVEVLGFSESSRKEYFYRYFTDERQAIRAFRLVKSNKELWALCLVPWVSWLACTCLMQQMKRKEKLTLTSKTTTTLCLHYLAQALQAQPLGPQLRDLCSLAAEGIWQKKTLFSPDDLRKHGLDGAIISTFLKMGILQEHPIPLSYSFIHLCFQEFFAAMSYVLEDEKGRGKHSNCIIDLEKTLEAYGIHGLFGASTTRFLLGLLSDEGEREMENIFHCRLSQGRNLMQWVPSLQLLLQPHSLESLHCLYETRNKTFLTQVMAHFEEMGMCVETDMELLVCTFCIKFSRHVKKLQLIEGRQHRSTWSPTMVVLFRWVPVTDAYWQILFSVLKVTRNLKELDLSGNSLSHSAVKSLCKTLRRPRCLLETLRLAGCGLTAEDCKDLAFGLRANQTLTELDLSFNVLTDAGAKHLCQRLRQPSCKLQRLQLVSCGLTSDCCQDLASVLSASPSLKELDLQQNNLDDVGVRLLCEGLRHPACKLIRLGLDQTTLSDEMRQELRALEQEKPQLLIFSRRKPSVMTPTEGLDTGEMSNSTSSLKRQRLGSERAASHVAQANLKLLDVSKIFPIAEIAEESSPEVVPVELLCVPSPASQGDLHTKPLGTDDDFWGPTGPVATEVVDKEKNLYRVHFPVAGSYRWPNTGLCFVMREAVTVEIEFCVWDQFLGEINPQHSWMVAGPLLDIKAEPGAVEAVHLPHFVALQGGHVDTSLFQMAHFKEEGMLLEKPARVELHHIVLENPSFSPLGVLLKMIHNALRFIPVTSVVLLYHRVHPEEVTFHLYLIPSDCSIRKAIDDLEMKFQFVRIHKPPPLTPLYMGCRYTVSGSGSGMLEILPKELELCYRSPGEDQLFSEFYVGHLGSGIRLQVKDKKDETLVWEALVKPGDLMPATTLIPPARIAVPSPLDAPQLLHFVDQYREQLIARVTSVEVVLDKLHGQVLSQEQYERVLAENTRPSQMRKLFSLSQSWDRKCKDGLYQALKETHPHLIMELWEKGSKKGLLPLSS
Protocol: FIGS. 9A-9F are a series of panels showing ADS032 (also referred to herein as “BT032”) directly binds to NLRP1 and NLRP3. FIGS. 9A and 9B are chemical structures of ADS165 and ADS167. […] ADS165 was then co-incubated for 20 mins and UV treated for 20 mins to cross-link associated compound and protein. Protein was separated by SDS-PAGE and immunoblotted (IB) with anti-PEG to visualize ADS165-linked protein. FIG. 9D: iBMDM cells stably expressing NLRP3-Flag were treated for 30 mins with ADS165, ADS167 (1 mM) or MCC955 (50 μM) for 30 mins, and irradiated with UV 365 nm for 30 mins. Cells were lysed with buffer and immunoprecipitation (IP) of NLRP3 performed with α-NLRP3 (D4D8T) antibody. Levels of precipitated (IP) and total cellular lysate (Input) NLRP3 were determined by immunoblotting with α-NLRP3 (Cryo-2) antibody. FIG. 9F: NLRP1-Flag was expressed in HEK293T cells (1×10^6) for 20 h and treated with ADS165 (1 mM) for 30 mins where indicated, followed by UV 365 nm for a further 30 mins. Cells were lysed with lysis buffer and […] immunoprecipitated with α-Flag (M2) antibody. Proteins were separated by SDS-PAGE and ADS165-linked NLRP1 identified by immunoblot with a-PEG, while total precipitated NLRP1 visualized by immunoblot with α-NLRP1 and total cell lysate by α-Flag. Data shown is representative of three independent experiments.
Next, it was determined whether ADSO32 could interact with NLRP1. […] To further investigate this interaction, ectopically expressed Flag-tagged NLRP1 was immunoprecipitated from cell lysates pretreated or not with ADS165 and exposed to UV light.

[3] = test system: inflammasome activation by UVB; test: Dermal UVB inflammatory challenge in healthy volunteers after intradermal dosing; format: in vivo, human
Protocol: This is a single-center, inflammatory challenge study in healthy volunteers, to evaluate inflammasome activation by UVB in healthy volunteers. Healthy volunteers will undergo a topical UVB challenge after intradermal dosing with BT032.
UV-B Challenge+BT032 (n=9; 3 Placebo, 6 Active): • Screening: 1 hour admission • Study day (day −1 to 1): 24 hours admission (baseline assessments, challenge, and 2, 4 hr blister, skin assessments) • Follow-up visit 1 (day 2): 1 hour admission (24 hr blister) • End of study visit (+7 days): 1 hour admission
Investigational drug (BT032)+UVB challenge. As part of the screening assessments, the subject's Fitzpatrick skin photo type is determined (type I-VI). The subject is first exposed to 6 different doses of UV-B, to determine the Minimal Erythemic Dose (MED) expressed in J/cm^2, using the six different slots of the UV-B lamp. Twenty-four hours (±2 hours) after the exposure of the 6 doses, the erythemic response of the skin to UV-B is assessed by two observers. The MED is determined visually, by observing which dose produces the first clearly discernible erythema. On the treatment days, the subject's skin is exposed to two minimal erythema doses (2MED) of UVB.
Subjects Groups. A total of 9 healthy volunteers will be enrolled. These subjects will undergo an UVB challenge after dosing with BT032. […]

Compound: CCCN(CCC)S(=O)(=O)c1ccc(-c2ccc(CCCC(=O)O)cc2)cc1 [BT032, 4-(4′-(N,N-dipropylsulfamoyl)-[1,1′-biphenyl]-4-yl)butanoic acid]
- AIM2 (poly dA:dT)-mediated inflammasome activation [1]: no effect
- direct interaction with NLRP1 [2]: directly interacts proximal to the Walker B motif within the NACHT domain
- levels of inflammasome-driven cytokines and/or inflammasome proteins versus non-treated controls ([3]; IL-1β, IL-18, IL-6, TNF, NLRP3, ASC, NLRP1): reduced levels
- activation of inflammasomes versus non-treated controls ([3]; intradermal dosing, UVB 2MED): reduction in the activation of inflammasomes
